22 molecules from patent US6342504B1, “Aromatic heterocyclic derivatives as enzyme inhibitors” (priority 1994, dated 2002) can be followed below.

pIC50: −log10 of the molar value. Where a name gives a salt, the structure may show the parent alone. Read-outs that look alike come from different tables or passages of the source.

Experiment [1] addresses T1, human alpha thrombin (Homo sapiens, UniProt P00734).
T1 construct: Purified human alpha-thrombin; purchased Enzyme Research Laboratories, Inc
Briefly: Thrombin (fIIa) IC50 assay, chromogenic substrate Pefachrome t-PA. The format is biochemical. On the procedure:
(§1) The ability of compounds of the present invention to act as a selective inhibitor of thrombin catalytic activity was assessed by determining the concentration of compound which inhibited the activity of this enzyme by 50%, (IC50), and comparing this value to that determined for all or some of the following related serine proteases: recombinant tissue plasminogen activator (rt-PA), plasmin, activated protein C, chymotrypsin, factor Xa and trypsin.
(§2) The buffer used for all assays was HBSA (10 mM HEPES, pH 7.5, 150 mM sodium chloride, 0.1% bovine serum albumin).
(§3) The assay for IC50 determinations was conducted by combining in appropriate wells of a Corning microtiter plate, 50 microliters of HBSA, 50 microliters of the test compound at a specified concentration (covering a broad concentration range) diluted in HBSA (or HBSA alone for VO (uninhibited velocity) measurement), and 50 microliters of the enzyme diluted in HBSA. Following a 30 minute incubation at ambient temperature, 50 microliters of the substrate at the concentrations specified below were added to the wells, yielding a final total volume of 200 microliters. The initial velocity of chromogenic substrate hydrolysis was measured by the change in absorbance at 405 nm using a Thermo Max® Kinetic Microplate Reader over a 5 minute period in which less than 5% of the added substrate was utilized. The concentration of added inhibitor which caused a 50% decrease in the initial rate of hydrolysis was defined as the IC50 value.
Enzyme activity was determined using the chromogenic substrate, Pefachrome t-PA (CH3SO2-D-hexahydrotyrosine-glycyl-L-Arginine-p-nitroaniline, obtained from Pentapharm Ltd.). The substrate was reconstituted in deionized water prior to use. Purified human a-thrombin was obtained from Enzyme Research Laboratories, Inc. The buffer used for all assays was HBSA (10 mM HEPES, pH 7.5, 150 mM sodium chloride, 0.1% bovine serum albumin).
IC50 determinations were conducted where HBSA ([…]), a-thrombin (50 μl) and inhibitor (50 μl) (covering a broad concentration range), were combined in appropriate wells and incubated for 30 minutes at room temperature prior to the addition of substrate Pefachrome-t-PA (50 μl). The initial velocity of Pefachrome t-PA hydrolysis was measured by the change in absorbance at 405 nm using a Thermo Max® Kinetic Microplate Reader over a 5 minute period in which less than 5% of the added substrate was utilized. The concentration of added inhibitor which caused a 50% decrease in the initial rate of hydrolysis was defined as the IC50 value.

The target in experiment [2] is T2, Human rt-PA (Activase) (Homo sapiens, UniProt P00750).
T2 construct: purchased Genentech Inc
T2 sequence (P00750 36-562): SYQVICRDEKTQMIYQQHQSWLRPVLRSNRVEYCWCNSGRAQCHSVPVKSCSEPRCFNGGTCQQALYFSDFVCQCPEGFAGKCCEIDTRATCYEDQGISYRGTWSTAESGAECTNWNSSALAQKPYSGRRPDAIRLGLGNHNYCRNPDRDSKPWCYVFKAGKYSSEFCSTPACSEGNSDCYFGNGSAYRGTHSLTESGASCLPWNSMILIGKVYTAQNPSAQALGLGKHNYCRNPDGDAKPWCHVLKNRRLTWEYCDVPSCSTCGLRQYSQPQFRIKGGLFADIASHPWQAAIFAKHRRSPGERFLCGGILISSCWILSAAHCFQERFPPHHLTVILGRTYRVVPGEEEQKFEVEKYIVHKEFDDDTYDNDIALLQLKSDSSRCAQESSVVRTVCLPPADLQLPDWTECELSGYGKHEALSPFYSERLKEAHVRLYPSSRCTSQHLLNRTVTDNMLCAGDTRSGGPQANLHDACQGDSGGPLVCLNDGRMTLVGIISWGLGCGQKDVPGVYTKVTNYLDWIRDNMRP
Briefly: biochemical. Conditions: 30 minute incubation. The procedure: as §1, §2, §3
Recombinant Tissue Plasminogen Activator (rt-PA) Assay
rt-PA catalytic activity was determined using the substrate, Pefachrome t-PA (CH3SO2-D-hexahydrotyrosine-glycyl-L-arginine-p-nitroaniline, obtained from Pentapharm Ltd.). The substrate was made up in deionized water followed by dilution in HBSA prior to the assay in which the final concentration was 500 micromolar (about 3-times Km). Human rt-PA (Activase®) was obtained from Genentech Inc. The enzyme was reconstituted in deionized water and diluted into HBSA prior to the assay in which the final concentration was 1.0 nM.

Experiment [3] deals with human plasmin (Homo sapiens, UniProt P00747). Briefly: biochemical. The settings on record: 30 minute incubation. On the procedure:
as §1, §2, §3
Plasmin catalytic activity was determined using the chromogenic substrate, S-2366 [L-pyroglutomyl-L-prolyl-L-arginine-p-nitroaniline hydrochloride], which was obtained from Pharmacia-Upjohn. The substrate was made up in deionized water followed by dilution in HBSA prior to the assay in which the final concentration was 300 micromolar (about 2.5-times Km). Purified human plasmin was obtained from Enzyme Research Laboratories, Inc. The enzyme was diluted into HBSA prior to assay in which the final concentration was […].

For experiment [4], the target named is T3, human aPC (Homo sapiens, UniProt P04070).
T3 construct: purchased Hematologic Technologies, Inc
T3 sequence (P04070 43-197): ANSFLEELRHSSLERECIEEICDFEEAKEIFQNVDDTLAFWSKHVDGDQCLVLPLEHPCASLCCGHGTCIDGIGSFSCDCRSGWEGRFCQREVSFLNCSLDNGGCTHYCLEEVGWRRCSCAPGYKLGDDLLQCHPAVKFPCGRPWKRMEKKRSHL
T3 sequence (P04070 212-461): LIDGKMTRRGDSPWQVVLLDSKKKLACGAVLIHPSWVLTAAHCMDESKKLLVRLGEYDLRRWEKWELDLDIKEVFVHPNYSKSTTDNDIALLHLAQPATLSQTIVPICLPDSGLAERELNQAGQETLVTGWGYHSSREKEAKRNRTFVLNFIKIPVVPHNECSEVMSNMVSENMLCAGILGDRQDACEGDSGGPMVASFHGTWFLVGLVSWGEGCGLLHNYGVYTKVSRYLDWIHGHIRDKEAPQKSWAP
Briefly: biochemical. The settings on record: 30 minute incubation. The procedure:
as §2
Following a 30 minute incubation at ambient temperature, 50 microliters of the substrate at the concentrations specified below were added to the wells, yielding a final total volume of 200 microliters.
Activated Protein C (aPC) Assay
aPC catalytic activity was determined using the chromogenic substrate, Pefachrome PC (delta-carbobenzloxy-D-lysine-L-prolyl-L-arginine-p-nitroaniline dihydrochloride), obtained from Pentapharm Ltd.). […] Purified human aPC was obtained from Hematologic Technologies, Inc. The enzyme was diluted into HBSA prior to assay in which the final concentration was 1.0 nM.

[5] abbreviates: 30 minute incubation, read-out: Thrombin IC50 (Table 3C).
Where [6] appears, read: read-out: rt-PA (IC50) (Table 3A).
Where [7] appears, read: read-out: Plasmin (IC50) (Table 3A).
[8] abbreviates: read-out: aPC (IC50) (Table 3A).
Where [9] appears, read: read-out: Plasmin IC50 (Table 3B).
[10] abbreviates: read-out: IC50 Plasmin (Table 2).

Sequence of human plasmin (P00747 97-580): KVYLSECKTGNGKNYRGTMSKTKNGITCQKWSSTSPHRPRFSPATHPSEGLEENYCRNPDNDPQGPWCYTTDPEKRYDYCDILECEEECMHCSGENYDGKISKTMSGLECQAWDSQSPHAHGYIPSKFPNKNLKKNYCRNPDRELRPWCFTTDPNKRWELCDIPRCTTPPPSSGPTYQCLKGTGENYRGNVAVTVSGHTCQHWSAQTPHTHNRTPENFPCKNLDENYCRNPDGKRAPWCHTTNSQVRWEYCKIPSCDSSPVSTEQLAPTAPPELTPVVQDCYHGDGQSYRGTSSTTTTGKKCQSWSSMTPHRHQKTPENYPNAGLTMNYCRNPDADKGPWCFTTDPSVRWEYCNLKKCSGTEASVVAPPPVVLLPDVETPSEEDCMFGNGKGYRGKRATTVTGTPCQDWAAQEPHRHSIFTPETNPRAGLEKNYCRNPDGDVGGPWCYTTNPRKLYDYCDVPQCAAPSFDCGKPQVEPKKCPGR
Sequence of human plasmin (P00747 581-810): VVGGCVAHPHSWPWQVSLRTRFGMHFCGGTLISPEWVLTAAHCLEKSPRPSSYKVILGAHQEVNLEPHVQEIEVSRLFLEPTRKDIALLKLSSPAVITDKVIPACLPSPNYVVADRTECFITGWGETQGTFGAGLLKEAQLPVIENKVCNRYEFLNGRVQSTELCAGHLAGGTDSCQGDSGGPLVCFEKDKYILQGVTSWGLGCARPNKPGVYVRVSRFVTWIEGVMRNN

In the case of “[2,3-methylenedioxy-benzene)sulfonylamino-2-oxo-1,2-dihydropyridyl]acetyl-L-argininal [Compound 152D]”, the pIC50 in experiment [1] (setting [5]) was 9.10.

As to `N=C(N)NCCC[C@@H](C=O)NC(=O)Cn1cccc(NS(=O)(=O)c2cccc(C(F)(F)F)c2)c1=O` [Compound 3-CF3-phenyl, [3-(3-trifluoromethylphenyl)sulfonylamino-2-oxo-1,2-dihydro-pyridyl]acetyl-L-argininal], the pIC50 in experiment [2] (setting [6]) was below 5.60; in experiment [1], 8.51; in experiment [3] (setting [7]), below 5.60; in experiment [4] (setting [8]) it was below 5.60.

In the case of `COC(=O)c1ccccc1CS(=O)(=O)Nc1cccn(CC(=O)N[C@H](C=O)CCCNC(=N)N)c1=O` [Compound 121M], the results for the pIC50 in experiment [1] and in experiment [3] (setting [9]) were 9.21 and below 5.60, respectively.

`Cc1ccc(F)cc1S(=O)(=O)Nc1cccn(CC(=O)N[C@H](C=O)CCCNC(=N)N)c1=O` [2-Me, 5-F-phenyl, [3-(2-methyl-5-fluorophenyl)sulfonylamino-2-oxo-1,2-dihydro-pyridyl]acetyl-L-argininal]: the pIC50 is below 5.60 in experiment [2] (setting [6]), 8.71 in experiment [1], below 5.60 in experiment [3] (setting [7]) and below 5.60 in experiment [4] (setting [8]).

With `Cc1ccc(F)cc1S(=O)(=O)Nc1ccc(C)n(CC(=O)N[C@H](C=O)CCCNC(=N)N)c1=O` [Compound 126B, [3-(5-fluoro-2-methylphenyl)sulfonylamino-6-methyl-2-oxo-1,2-dihydro-pyridyl]acetyl-L-argininal], in experiment [2], the “rtPA IC50 (Table 3B)” value was “inactive”. Also, the figures for the pIC50 in experiment [1] and in experiment [3] (setting [9]) were 9.05 and below 5.60, respectively. Also, the “aPC IC50 (Table 3B)” value in experiment [4] was “inactive”.

`N=C(N)NCCC[C@@H](C=O)NC(=O)Cn1cccc(NS(=O)(=O)Cc2cc(F)ccc2F)c1=O` [Compound 121P, [3-(2,5-difluorobenzyl)sulfonylamino-2-oxo-1,2-dihydropyridyl]acetyl-L-argininal]: the values for the pIC50 in experiment [2] (read-out: rtPA IC50 (Table 3B)), in experiment [1] and in experiment [3] (setting [9]) were below 5.60, 8.76 and below 5.60, respectively. For the same molecule, the “aPC IC50 (Table 3B)” value in experiment [4] was “inactive”.

`COc1ccc(Cl)cc1S(=O)(=O)Nc1cccn(CC(=O)NC(C=O)CCCNC(=N)N)c1=O` [2-OMe, 5-Cl-phenyl, (5-chloro-2-methoxy-phenylsulfonyl-3-amino-2-oxo-1,2-dihydropyridyl)acetyl-L-Argininal, trifluoroacetate salt]: the pIC50 is below 5.60 in experiment [2] (setting [6]), 8.94 in experiment [1], below 5.60 in experiment [3] (setting [7]) and below 5.60 in experiment [4] (setting [8]).

On to “[5-(2,3-dihydrobenzofuran)sulfonylamino-6-methyl-2-oxo-1,2-dihydro-pyridyl]acetyl-L-argininal [Compound 153C]”, for which the pIC50 in experiment [1] (setting [5]) is 9.58.

Turning to `N=C(N)NCCC[C@@H](C=O)NC(=O)Cn1cccc(NS(=O)(=O)Cc2ccccc2F)c1=O` [Compound 121J], the pIC50 was below 5.60 in experiment [2] (read-out: rtPA IC50 (Table 3B)), 9.12 in experiment [1] and below 5.60 in experiment [3] (setting [9]). In experiment [4], the “aPC IC50 (Table 3B)” value was “inactive”.

`N=C(N)NCCC[C@@H](C=O)NC(=O)Cn1cccc(NS(=O)(=O)c2ccccc2)c1=O` [Compound B, (3-phenylsulfonylamino-2-oxo-1,2-dihydro-pyridyl)acetyl-L-argininal]: the pIC50 in experiment [2] (1.0 nM enzyme, read-out: IC50 rt-PA (Table 2)) was below 5.60; in experiment [1] it was 9.01; in experiment [3] (setting [10]), below 5.60; in experiment [4] (1.0 nM enzyme, read-out: IC50 aPC (Table 2)), below 5.60.

For the molecule `COc1cccc(S(=O)(=O)Nc2cccn(CC(=O)N[C@H](C=O)CCCNC(=N)N)c2=O)c1` [Compound 3-OMe-phenyl, [3-(3-methoxylphenyl)sulfonylamino-2-oxo-1,2-dihydropyridyl]acetyl-L-argininal], the pIC50 is below 5.60 in experiment [2] (setting [6]), 9.19 in experiment [1], below 5.60 in experiment [3] (setting [7]) and below 5.60 in experiment [4] (setting [8]).

Turning to `COc1ccccc1S(=O)(=O)Nc1cccn(CC(=O)N[C@H](C=O)CCCNC(=N)N)c1=O` [Compound 2-OMe-phenyl, [3-(2-methoxylphenyl)sulfonylamino-2-oxo-1,2-dihydropyridyl]acetyl-L-argininal], the pIC50 was below 5.60 in experiment [2] (setting [6]), 8.70 in experiment [1], below 5.60 in experiment [3] (setting [7]) and below 5.60 in experiment [4] (setting [8]).

On to `N=C(N)NCCC[C@@H](C=O)NC(=O)Cn1cccc(NS(=O)(=O)c2ccccc2N)c1=O` [Compound 2-NH2phenyl, [3-(2-aminophenyl)sulfonylamino-2-oxo-1,2-dihydropyridyl]acetyl-L-argininal], for which the pIC50 in experiment [2] (setting [6]) is below 5.60; in experiment [1], 8.43; in experiment [3] (setting [7]), below 5.60; in experiment [4] (setting [8]) it was below 5.60.

Turning to `N=C(N)NCCC[C@@H](C=O)NC(=O)Cn1cccc(NS(=O)(=O)Cc2cccc(F)c2)c1=O` [Compound 121K], the “rtPA IC50 (Table 3B)” value in experiment [2] is “inactive”. In addition, the pIC50 was 9.05 in experiment [1] and below 5.60 in experiment [3] (setting [9]). Moreover, in experiment [4], the “aPC IC50 (Table 3B)” value was “inactive”.

For `COc1cccc(S(=O)(=O)Nc2ccc(=O)n(CC(=O)N[C@H](C=O)CCCNC(=N)N)c2)c1OC` [Compound 152B, [5-(2,3-dimethoxy-benzene)sulfonylamino-2-oxo-1,2-dihydropyridyl]acetyl-L-argininal], the pIC50 in experiment [1] (setting [5]) was 7.83.

Turning to `Cc1ccc(NS(=O)(=O)Cc2ccccc2)c(=O)n1CC(=O)N[C@H](C=O)CCCNC(=N)N` [Compound C, (3-benzylsulfonylamino-6-methyl-2-oxo-1,2-dihydro-1-pyridyl)acetyl-L-argininal, trifluoroacetate salt], the pIC50 in experiment [1] is 9.33; in experiment [3] (setting [10]), below 5.60.

In the case of `N=C(N)NCCC[C@@H](C=O)NC(=O)Cn1cccc(NS(=O)(=O)c2ccccc2F)c1=O` [Compound 121A], the pIC50 in experiment [1] was 7.83; in experiment [3] (setting [9]), below 5.60.

Consider “[5-(1,3-benzodioxole)sulfonylalmino-6-methyl-2-oxo-1,2-dihydro-pyridyl]acetyl-L-argininal [Compound 153D]”, for which the pIC50 in experiment [1] (setting [5]) is 9.51.

In the case of “[5-(1,3-benzodioxole)sulfonylamino-2-oxo-1,2-dihydropyridyl]acetyl-L-argininal [Compound 152A]”, the pIC50 in experiment [1] (setting [5]) was 9.09.

`N=C(N)NCCC[C@@H](C=O)NC(=O)Cn1cccc(NS(=O)(=O)CCc2ccccc2)c1=O` [Compound 121G, [3-(phenethyl)sulfonylamino-2-oxo-1,2-dihydropyridyl]acetyl-L-argininal]: the pIC50 in experiment [1] is 7.33; in experiment [3] (setting [9]) it was around 5.60.

On to “[5-(2,3-dioxaspirocyclohexyl)-sulfonylamino-2-oxo-1,2-dihydropyridyl]acetyl-L-argininal [Compound 152C]”, for which the pIC50 in experiment [1] (setting [5]) was 8.22.

For “[5-(1,4-benzodioxan)sulfonylamino-6-methyl-2-oxo-1,2-dihydro-pyridyl]acetyl-L-argininal [Compound 153B]”, the pIC50 in experiment [1] (setting [5]) was 9.56.

In general, pIC50 refers to the IC50 on a negative log10 scale, so that one unit is a factor of ten.
